In patent US6197495A, “Methods using the staphylococcus aureus glycyl tRNA synthetase crystalline structure” (SmithKline Beecham Corporation, priority 1998, dated 2001):

Legend:
[1] = molecular target: T1, Staphylococcus aureus glycyl tRNA synthetase (GRS), SEQ ID NO:1 (Staphylococcus aureus, UniProt P99129); assay: Aminoacylation assay of GRS catalytic activity in the presence of a range of inhibitor concentrations; type: biochemical; details: S. aureus GRS; four parameter logistic fit; tRNA acylation with radiolabelled glycine, 37° C.; read-out: IC50 (the inhibitor concentration at which GRS activity is reduced by half)
T1 construct: purified enzyme or crude lysate; homodimer
T1 sequence (P99129 1-463): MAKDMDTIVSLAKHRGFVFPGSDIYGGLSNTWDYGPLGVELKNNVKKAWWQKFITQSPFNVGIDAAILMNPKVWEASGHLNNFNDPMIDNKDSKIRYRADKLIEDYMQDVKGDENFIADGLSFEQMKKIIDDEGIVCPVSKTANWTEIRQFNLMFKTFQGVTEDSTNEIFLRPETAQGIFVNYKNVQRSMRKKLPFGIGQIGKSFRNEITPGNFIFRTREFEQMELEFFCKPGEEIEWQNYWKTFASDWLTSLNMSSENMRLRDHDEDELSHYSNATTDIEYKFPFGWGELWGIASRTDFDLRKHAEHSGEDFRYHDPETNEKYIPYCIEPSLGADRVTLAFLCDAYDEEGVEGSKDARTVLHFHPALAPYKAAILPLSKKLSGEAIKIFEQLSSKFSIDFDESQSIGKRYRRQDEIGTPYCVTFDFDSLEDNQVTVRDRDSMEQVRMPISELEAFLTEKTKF
From the text: (§1) Glycylsulfmoyladenosine is an analogue of the Gly-AMP reaction intermediate and inhibits GRS catalytic activity as measured by any of the techniques described in the examples below. Estimates of the potency of inhibition are obtained by performing enzyme assays in the presence of a range of inhibitor concentrations, and fitting the effect of inhibitor concentration on enzyme velocity to a four parameter logistic function that allows calculation of an IC50 (the inhibitor concentration at which GRS activity is reduced by half). […] Binding of glycylsulfamoyladenosine to GRS can also be measured directly using stopped-flow fluorescence techniques because enzyme:inhibitor binary complex has around 5% higher tryptophan fluorescence than the free enzyme. Experiments of this type yield the following elementary rate constants for inhibitor binding; kon =1.1×10^6 s^-1.M^-1, koff =2.9s ^-1 .
Assays were performed either using purified S. aureus GRS overexpressed in E. coli, or using crude cell lysate from E. coli overexpressing GRS. The latter contained around 10% of total protein as GRS. Enzyme was stored at -70° C. in 50 mM Tris-HCl buffer (pH 7.8), 10 mM MgCl2 and 10 mM B-mercaptoethanol after flash freezing in liquid N2. […]
The assay procedure was as follows. […] The filters were dried at 70° C. for 1 hour and the levels of radioactivity measured by scintillation counting (Packard Topcount). […]

[2] = molecular target: T1, Staphylococcus aureus glycyl tRNA synthetase (GRS), SEQ ID NO:1; assay: Stopped-flow tryptophan fluorescence measurement of inhibitor binding to GRS
From the text: as §1
(1) Effects of ligand binding upon enzyme intrinsic fluorescence (e.g. of tryptophan). Binding of either natural ligands or inhibitors may result in enzyme conformational changes which alter enzyme fluorescence. Using stopped-flow fluorescence equipment, this can be used to define the microscopic rate constants that describe binding. Alternatively, steady-state fluorescence titration methods can yield the overall dissociation constant for binding in the same way that these are accessed through enzyme inhibition experiments.

NCC(=O)NS(=O)(=O)OC[C@H]1O[C@@H](n2cnc3c(N)ncnc32)[C@H](O)[C@@H]1O [glycylsulfamoyladenosine, 5'-O-Glycylsulfamoyladenosine]
IC50 [1]: ~2400 nM
koff [2]: 2.9 s⁻¹
kon [2]: 1.1e+06 M⁻¹ s⁻¹
Kd ([2]; estimate from the ratio of koff and kon): 2600 nM
